In patent publication US9993444B2, “Use of beta-adrenergic inverse agonists for smoking cessation” (INVION, INC., priority 2011, dated 2018):
Entries after “also recorded” stand apart in the source; their conditions may differ.

Assays:
[1] = acute administration; U.S. Pat. No. 6,284,800; cited from earlier work
β-adrenergic receptor = settings: cited from earlier work
asthmatic mice [2] = assay: Lung histology (periodic acid-Schiff stain, goblet cells/mucus) after chronic inverse agonist treatment of ovalbumin-sensitized and -challenged mice; format: in vivo, Balb/cJ mice
Experimental: (§1) Mice were made asthmatic by sensitization to the antigen ovalbumin. Balb/cJ mice aged 6 weeks (Jackson Animal Laboratory, Bar Harbor, Me.) were housed under specific pathogen-free conditions and fed a chicken ovalbumin-free diet. Mice were sensitized with subcutaneous injection of 25 μg of ovalbumin adsorbed to aluminum hydroxide on protocol days 2, 9, and 16. Subsequently, mice were given […] of saline solution containing 25 μg of ovalbumin intranasally, on a daily basis, from protocol days 23 through 27. A group of ovalbumin-sensitized saline-challenged mice serves as controls for systemic sensitization and respiratory challenges with ovalbumin. Prior to intranasal administrations, mice were sedated with halothane vapor. For the study of this Example, ovalbumin-sensitized and ovalbumin-challenged mice, and ovalbumin-sensitized and saline-challenged mice will be referred to as asthmatic mice and control mice, respectively.
(§2) Animals received drug treatment for 7 days from day 21 to 27 of the sensitization/challenging protocol; ICI-118,551 at 10 mg/kg, was administered 3 times a day subcutaneously by osmotic minipump (Alzet®, #2004, Durect Corporation, Cupertino, Calif.). ICI-118,551 was dissolved in 50% DMSO. […]

[3] = test system: tracheas from asthmatic mice; settings: chronically treated asthmatic mice, excised tracheas; WO 02/29534; cited from earlier work
asthmatic mice [4] = assay: Lung histology (hematoxylin-eosin) after chronic inverse agonist treatment of ovalbumin-sensitized and -challenged mice; format: in vivo, Balb/cJ mice; settings: ICI-118,551 10 mg/kg subcutaneously by osmotic minipump, 7 days (day 21 to 27)
Experimental: as §1, §2

[5] = test system: sensitized and challenged mice; assay: Airway hyperresponsiveness to methacholine in a mouse model of obstructive lung disease, chronic administration; format: in vivo; settings: for airway hyperresponsiveness: compared to untreated sensitized and challenged mice
Source text: Even though alprenolol is a β-adrenergic antagonist, it has partial agonist activity. Carvedilol is a β1/β2 non-selective adrenergic antagonist with α1-adrenergic antagonist activity.

patients with CHF = settings: cited from earlier work

## CC(C)NC[C@@H](O)COc1cccc2ccccc12 [D-propranolol]
[1]
  antigen-induced bronchoconstriction and airway hyperresponsiveness: beneficial in inhibiting antigen-induced bronchoconstriction and reducing airway hyperresponsiveness
β-adrenergic receptor; U.S. Pat. No. 5,116,867
  potency in inhibiting the β-adrenergic receptor relative to the L-form: 1/100
β-adrenergic receptor; U.S. Pat. No. 6,284,800
  activity with respect to β-adrenergic receptors: inactive

## Cc1ccc(OCC(O)C(C)NC(C)C)c2c1CCC2 (stereo not shown) [ICI 118,551]
Asthmatic mice [2]; ICI-118,551 10 mg/kg subcutaneously by osmotic minipump, 7 days (day 21 to 27)
  appearance of lung epithelial cells, PAS stain (FIG. 6): appear substantially normal
Asthmatic mice [2]; chronic treatment
  transformation of lung epithelium from ciliated cells to mucus-producing goblet cells (FIGS. 1-6): restores the airway epithelium to a normal healthy state; also recorded: substantially reversed the transformation of lung epithelium
[3]
  rank of effectiveness on tracheal contraction in response to methacholine: then ICI-118,551
Asthmatic mice [4]
  appearance of lung epithelial cells, hematoxylin-eosin staining (FIG. 3): substantially returned to their normal appearance

## CC(C)NC[C@H](O)COc1cccc2ccccc12 [L-form of propranolol, propranolol]
[1]
  specific lung resistance: increased specific lung resistance

## C=CCc1ccccc1OCC(O)CNC(C)C (stereo not shown) [alprenolol]
[5]
  airway hyperresponsiveness: does not reduce airway hyperresponsiveness; also recorded: without any activity
[3]
  rank of effectiveness on tracheal contraction in response to methacholine: most effective compound

## CC(C)(Cc1c[nH]c2ccccc12)NCC(O)COc1ccccc1C#N (stereo not shown) [bucindolol]
Patients with CHF
  clinical outcome in congestive heart failure (mortality / benefit over placebo): failed to demonstrate any benefit over placebo

## COc1ccccc1OCCNCC(O)COc1cccc2[nH]c3ccccc3c12 (stereo not shown) [carvedilol]
[5]
  sensitivity of the responsiveness to methacholine: shifts the sensitivity of the responsiveness to methacholine to lower concentrations
  airway hyperresponsiveness: does reduce airway hyperresponsiveness
[3]
  rank of effectiveness on tracheal contraction in response to methacholine: followed by carvedilol
Patients with CHF
  clinical outcome in congestive heart failure (mortality / benefit over placebo): significant mortality reduction

## COCCc1ccc(OCC(O)CNC(C)C)cc1 (stereo not shown) [metoprolol]
Patients with CHF
  clinical outcome in congestive heart failure (mortality / benefit over placebo): significant mortality reduction
